Like-named read-outs stand apart in the source and are kept apart here.
What was measured:
[1] = system: HDACs HeLa cells nuclear extract; assay: HDAC inhibitory activity, fluorometric kit, HeLa cell nuclear extract; format: biochemical, human; details: HeLa cell nuclear extract as HDAC source
HDAC1 human recombinant = target: T1, HDAC1 human recombinant (Homo sapiens, UniProt Q13547); assay: HDAC1 inhibitory activity, fluorometric kit; format: biochemical; details: Class I
T1 construct: purchased Enzo Life Science BML-AK511
T1 sequence (Q13547 whole entry): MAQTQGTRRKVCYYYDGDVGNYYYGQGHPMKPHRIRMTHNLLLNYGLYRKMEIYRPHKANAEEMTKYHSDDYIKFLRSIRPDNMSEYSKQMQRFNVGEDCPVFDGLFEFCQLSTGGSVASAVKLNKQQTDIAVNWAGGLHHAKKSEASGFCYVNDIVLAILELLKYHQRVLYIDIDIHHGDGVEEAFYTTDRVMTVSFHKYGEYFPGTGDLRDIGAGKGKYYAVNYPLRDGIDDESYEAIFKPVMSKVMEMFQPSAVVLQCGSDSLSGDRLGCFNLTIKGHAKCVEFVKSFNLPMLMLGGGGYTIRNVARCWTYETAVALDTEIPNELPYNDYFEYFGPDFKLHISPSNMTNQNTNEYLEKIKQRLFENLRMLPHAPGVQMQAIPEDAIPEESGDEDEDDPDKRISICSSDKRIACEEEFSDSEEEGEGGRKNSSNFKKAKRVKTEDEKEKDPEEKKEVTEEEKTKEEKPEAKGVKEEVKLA

HDAC6 human recombinant = target: T2, HDAC6 human recombinant (Homo sapiens, UniProt Q9UBN7); assay: HDAC6 inhibitory activity, fluorometric kit; format: biochemical; details: Class II
T2 construct: purchased Enzo Life Science BML-AK516
T2 sequence (Q9UBN7 1-1215): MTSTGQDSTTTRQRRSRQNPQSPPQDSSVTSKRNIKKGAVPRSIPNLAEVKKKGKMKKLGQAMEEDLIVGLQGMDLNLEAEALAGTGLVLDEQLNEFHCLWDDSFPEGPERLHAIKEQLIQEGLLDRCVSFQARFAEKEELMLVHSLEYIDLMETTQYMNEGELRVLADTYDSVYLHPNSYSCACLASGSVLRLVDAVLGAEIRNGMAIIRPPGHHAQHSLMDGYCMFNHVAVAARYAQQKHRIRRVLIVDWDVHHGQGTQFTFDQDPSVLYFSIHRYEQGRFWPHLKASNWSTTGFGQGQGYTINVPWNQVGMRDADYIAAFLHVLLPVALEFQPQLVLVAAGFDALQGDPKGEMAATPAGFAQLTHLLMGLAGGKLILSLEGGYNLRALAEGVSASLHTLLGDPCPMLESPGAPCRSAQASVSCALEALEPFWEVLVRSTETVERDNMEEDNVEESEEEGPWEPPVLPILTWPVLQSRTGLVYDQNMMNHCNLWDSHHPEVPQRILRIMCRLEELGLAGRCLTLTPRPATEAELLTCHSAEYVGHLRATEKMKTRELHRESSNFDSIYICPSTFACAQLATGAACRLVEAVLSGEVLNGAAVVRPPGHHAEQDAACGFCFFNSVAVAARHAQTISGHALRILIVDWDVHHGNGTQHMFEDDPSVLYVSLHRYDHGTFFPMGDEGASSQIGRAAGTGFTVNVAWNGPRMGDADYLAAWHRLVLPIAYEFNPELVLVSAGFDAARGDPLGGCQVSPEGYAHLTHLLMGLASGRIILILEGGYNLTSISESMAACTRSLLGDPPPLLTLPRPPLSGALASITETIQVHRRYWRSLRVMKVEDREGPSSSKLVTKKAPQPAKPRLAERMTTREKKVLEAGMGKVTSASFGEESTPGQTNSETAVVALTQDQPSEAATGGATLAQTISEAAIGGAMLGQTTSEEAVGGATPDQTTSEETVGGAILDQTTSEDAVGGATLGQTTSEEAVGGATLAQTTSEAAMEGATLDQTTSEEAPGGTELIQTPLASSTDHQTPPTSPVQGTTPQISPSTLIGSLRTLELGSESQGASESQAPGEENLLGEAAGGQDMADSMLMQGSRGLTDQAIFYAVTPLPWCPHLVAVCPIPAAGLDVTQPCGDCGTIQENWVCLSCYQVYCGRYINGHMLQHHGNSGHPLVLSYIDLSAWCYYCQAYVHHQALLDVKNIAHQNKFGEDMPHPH

[2] = Cytotoxicity assay (Alamar Blue) in cardiac fibroblasts; format: cell-based, rat; details: Sprague-Dawley, rat, primary neonatal rat cardiac fibroblasts (CFs), CFs treated for 48 h
Experimental: (§1) CFs were treated for 48 h with all the new CTz derivatives in a broad concentration range (100 μM^−1 mM), and their cytotoxicity was then evaluated. In Table 3 cytotoxic concentration 50 (CC50) values for each of the synthesized compounds are shown. […] When comparing the different ZBG the series 5 is the least cytotoxic for CFs, while series 8 was the most cytotoxic.
(§2) Sprague Dawley rats were obtained from the Animal Breeding Facility of the School of Chemical and Pharmaceutical Sciences at the University of Chile. All studies followed the Guide for the Care and Use of Laboratory Animals published by the US National Institutes of Health (NIH Publication 8th, 2011), and experimental protocols were approved by the University of Chile Institutional Ethics Review Committee. CF were isolated from of 2 or 3–day–old Sprague-Dawley rats and cultured as described previously. Briefly, the neonatal rats were decapitated and their hearts were extracted under aseptic environment. Atria were removed and ventricles were cut into small pieces (~1–2 mm) for posterior colagenase II digestion. The digestion yield was separated by 10 min centrifugation at 89×g. The pellet was resuspended in 10 mL of Dulbecco’s Modified Eagle’s Medium/Nutrient F-12 (DMEM-F12) supplemented with 10% FBS and antibiotics (100 μg/mL streptomycin and 100 units/mL penicillin) and cultured in a humid atmosphere of 5% CO2 and 95% O2 at 37°C until confluence (5 days). The purity of the CFs population was assessed through the expression of several markers. CFs had positive staining against vimentin (Santa Cruz Biotechnology), while being negative against sarcomeric actin and desmin (Sigma-Aldrich). Experiments were performed on cells at passage 1. Cells were cultured in 35-mm well plates and serum starved for 24 h prior to stimulation.
(§3) To evaluate cytotoxicity, CFs were seeded in 12 microwell plates at a ratio of 2 × 10^4 cell/cm^2, cultured in DMEM–F12 medium + 10% FBS, which was subsequently replaced by DMEM–F12. After 24 h of serum starvation derivatives were applied at proper times and concentrations in accordance to experimental procedures. Cell viability assays were carried out using Alamar Blue®, a nontoxic, cell permeable non fluorescent compound that is blue in color. Viable cells reduce resazurin to resorufin, which produces very bright red fluorescence which is used as a quantitative cell viability measure. 10 μL of 0.2 mg/mL Alamar Blue® was added into each well followed by incubation for 24 h. The fluorescence of Alamar Blue® was read using microplate reader at 570 excitation and emission to 595 nm. Cell survival was expressed as percentage over the untreated cells. To evaluate CFs proliferation assay, cells were seeded as mentioned before, and after serum starvation, they were stimulated by 10% fetal bovine serum (FBS), in presence/absence of CTz derivatives for 24 h, at concentrations according to experiment. Cell proliferation was quantified by Alamar Blue®, according to protocol mentioned before. Cell proliferation was expressed as percentage over the control FBS treated cells.

[3] = system: neonatal rat cardiac fibroblasts (CFs); assay: FBS-induced cardiac fibroblast proliferation assay (Alamar Blue); format: cell-based; details: 10% FBS-induced CF proliferation, 48 h, read-out: Inhibition percentage of cell proliferation
Experimental: CFs were treated for 48 h with 10% fetal bovine serum (FBS), to induce CFs proliferation in presence/absence of each new CTz derivatives in a concentration range of 1–10 μM. In Table 4, the inhibition percentage of cell proliferation for each concentration of the synthesized compounds are shown. All derivatives inhibited CFs proliferation induce by serum.
as §2, with “Cells were cultured in 35-mm well plates and serum starved for 24 h prior to stimulation.” left out
as §3, with “10 μL of 0.2 mg/mL Alamar Blue® was added into each well followed by incubation for 24 h.” left out, “To evaluate CFs proliferation assay, cells were seeded as mentioned before, and after serum starvation, they were stimulated by 10% fetal bovine serum (FBS), in presence/absence of CTz derivatives for 24 h, at concentrations according to experiment.” left out

[4] = system: neonatal rat cardiac fibroblasts (CFs); assay: Cytotoxicity assay (Alamar Blue) in cardiac fibroblasts; format: cell-based; details: CFs treated for 48 h
Experimental: as §1, §2, §3

CFs = system: CFs; set-up: method as in PMID 24631770, PMID 24374140; details: cited from earlier work
HDACs = details: read-out: IC50 HDAC inhibition, cited from earlier work

SMILES | IC50 [1] [µM] | IC50 (HDAC1 human recombinant) [µM] | IC50 (HDAC6 human recombinant) [µM] | CC50 at 48 h [2] [µM] | inhibition at 1 µM [3] [%] | inhibition at 5 µM [3] [%] | inhibition at 10 µM [3] [%] | further results
COc1ccc2oc(=O)c(-c3csc(NC(=O)CCCCC4CCSS4)n3)cc2c1 (stereo not drawn) [Compound 5c, 5-[1,2]-Dithiolan-3-yl-N-[4-(6-methoxy-2-oxo-2H-chromen-3-yl)-thiazol-2-yl]-pentanamide] | 0.05 ± 0.0017 | 0.0397 ± 0.0013 | 0.0841 ± 0.0029 | 171 ± 6.1 | 67 ± 8.3 | 83.2 ± 6.8 | 91.2 ± 3.2 | melting point: 83 to 84 °C
O=C(CCCCC(=O)Nc1nc(-c2cc3cc(Br)ccc3oc2=O)cs1)NO [Compound 8b, 5-[4-(6-Bromo-2-oxo-2H-chromen-3-yl)-thiazol-2-yl-carbamoyl]-N-hydroxypentanamide] | 0.0571 ± 0.0045 | 0.0454 ± 0.0026 | 0.0802 ± 0.0037 | 72.4 | 72.7 ± 3.9 | 94.4 ± 7 | 104 ± 2.8 | CC50 [4]: 72.5 ± 11.6 µM
COc1ccc2oc(=O)c(-c3csc(NC(=O)CCCCC(=O)NO)n3)cc2c1 [Compound 8c, 5-[4-(6-Methoxy-2-oxo-2H-chromen-3-yl)-thiazol-2-yl-carbamoyl]-N-hydroxypentanamide] | 0.0415 ± 0.0027 | 0.0465 ± 0.0022 | 0.0626 ± 0.0023 | 86.5 ± 5.9 | 69.7 ± 9.1 | 81.8 ± 5.5 | 97.7 ± 4.7 | melting point: 125 to 127 °C (dec.)
CCC(=O)CCCCC[C@@H]1NC(=O)[C@H]2CCCCN2C(=O)[C@H]([C@@H](C)CC)NC(=O)[C@H](Cc2cn(OC)c3ccccc23)NC1=O [apicidin] |  |  |  |  |  |  |  | concentration shown to inhibit the proliferation of CFs (CFs): 3 µM
O=C(O)/C=C/c1ccc(O)c(O)c1 [caffeic acid] |  |  |  |  |  |  |  | IC50 (HDACs; catecholic derivatives): 2540 µM
O=C(/C=C/c1ccc(O)c(O)c1)O[C@@H]1C[C@](O)(C(=O)O)C[C@@H](O)[C@H]1O [chlorogenic acid] |  |  |  |  |  |  |  | IC50 (HDACs; catecholic derivatives): 375 µM
Nc1ccccc1NC(=O)c1ccc(CNc2nccc(-c3cccnc3)n2)cc1 [mocetinostat] |  |  |  |  |  |  |  | concentration shown to inhibit the proliferation of CFs (CFs): 1 µM
O=C(O)CCCc1ccccc1 [phenylbutyric acid] |  |  |  |  |  |  |  | IC50 (HDACs; short chain fatty acids): 620 µM
CCCC(CCC)C(=O)O [valproic acid] |  |  |  |  |  |  |  | IC50 (HDACs; short chain fatty acids): 140 µM

Source: publication PMC6412891, “Synthesis and Biological Evaluation of Novel Thiazolyl-Coumarin Derivatives as Potent Histone Deacetylase Inhibitors with Antifibrotic Activity” (Molecules, 2019)
